Reference: US12685735B2 (Foghorn Therapeutics Inc., priority 2020, dated 2026)

Experiments:
BRM = BRM (Homo sapiens, UniProt P51531); test: ATPase catalytic activity assay of BRM (ADP-Glo); type: biochemical; conditions: for IC50: read-out: BRM IC50 (μM)*
Outline: (§1)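 Once the enzyme reaction finished, residual ATP is removed with ADP-Glo Reagent over 40 minutes at room temperature. Kinase Detection Reagent then converts product ADP into ATP during a 60-minute room-temperature incubation, and the luciferase signal is read.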

BRG-1 = BRG-1 (Homo sapiens, UniProt P51532); test: ATPase catalytic activity assay of BRG-1 (ADP-Glo); type: biochemical; conditions: ATPase catalytic activity, ADP-Glo; for IC50: read-out: BRG1 IC50 (μM)*; for Emax: read-out: BRG1 Max % Inhibition
Chain of BRG-1 (P51532 whole entry): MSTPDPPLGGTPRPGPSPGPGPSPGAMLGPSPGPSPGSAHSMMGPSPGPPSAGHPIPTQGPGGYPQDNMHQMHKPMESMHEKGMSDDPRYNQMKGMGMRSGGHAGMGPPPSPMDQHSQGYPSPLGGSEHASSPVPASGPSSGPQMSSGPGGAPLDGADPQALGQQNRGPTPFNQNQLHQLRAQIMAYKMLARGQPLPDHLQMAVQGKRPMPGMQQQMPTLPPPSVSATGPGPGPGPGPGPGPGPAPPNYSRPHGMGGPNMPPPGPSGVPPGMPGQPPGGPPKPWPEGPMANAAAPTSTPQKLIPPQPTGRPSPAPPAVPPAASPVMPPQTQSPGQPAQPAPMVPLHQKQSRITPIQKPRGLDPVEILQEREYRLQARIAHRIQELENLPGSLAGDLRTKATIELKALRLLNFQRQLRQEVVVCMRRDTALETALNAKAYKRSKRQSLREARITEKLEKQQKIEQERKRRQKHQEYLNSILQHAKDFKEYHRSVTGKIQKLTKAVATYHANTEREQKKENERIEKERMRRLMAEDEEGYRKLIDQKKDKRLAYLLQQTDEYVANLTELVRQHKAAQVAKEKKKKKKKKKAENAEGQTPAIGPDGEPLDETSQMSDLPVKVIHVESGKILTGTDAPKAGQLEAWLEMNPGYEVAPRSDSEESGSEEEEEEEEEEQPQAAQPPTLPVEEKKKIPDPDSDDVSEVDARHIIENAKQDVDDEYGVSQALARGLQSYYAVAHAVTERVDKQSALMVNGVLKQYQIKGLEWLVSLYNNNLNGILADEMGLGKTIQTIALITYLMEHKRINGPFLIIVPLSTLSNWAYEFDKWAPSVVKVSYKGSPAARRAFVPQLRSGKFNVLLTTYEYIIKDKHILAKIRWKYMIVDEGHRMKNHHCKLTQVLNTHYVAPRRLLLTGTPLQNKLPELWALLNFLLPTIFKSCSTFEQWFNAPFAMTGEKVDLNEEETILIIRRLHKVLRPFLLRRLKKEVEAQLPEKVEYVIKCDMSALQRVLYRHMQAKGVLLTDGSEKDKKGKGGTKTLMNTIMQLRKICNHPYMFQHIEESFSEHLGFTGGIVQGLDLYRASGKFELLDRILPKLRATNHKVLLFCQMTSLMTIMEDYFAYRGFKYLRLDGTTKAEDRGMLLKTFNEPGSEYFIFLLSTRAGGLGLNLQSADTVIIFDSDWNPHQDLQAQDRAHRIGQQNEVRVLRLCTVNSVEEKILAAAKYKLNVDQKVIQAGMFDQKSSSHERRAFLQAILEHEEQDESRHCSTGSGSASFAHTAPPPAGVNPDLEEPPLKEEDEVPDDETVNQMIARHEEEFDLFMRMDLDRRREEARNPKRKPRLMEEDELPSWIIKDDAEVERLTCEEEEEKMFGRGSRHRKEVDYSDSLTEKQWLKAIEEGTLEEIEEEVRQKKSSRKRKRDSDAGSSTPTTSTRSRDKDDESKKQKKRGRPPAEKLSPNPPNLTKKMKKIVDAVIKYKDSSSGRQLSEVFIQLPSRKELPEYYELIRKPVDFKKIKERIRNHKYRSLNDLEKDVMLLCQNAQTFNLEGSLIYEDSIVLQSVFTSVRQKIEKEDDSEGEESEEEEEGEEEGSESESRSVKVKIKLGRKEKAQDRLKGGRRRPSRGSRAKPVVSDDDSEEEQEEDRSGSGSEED
Outline: as §1

Chain of BRM (P51531 whole entry): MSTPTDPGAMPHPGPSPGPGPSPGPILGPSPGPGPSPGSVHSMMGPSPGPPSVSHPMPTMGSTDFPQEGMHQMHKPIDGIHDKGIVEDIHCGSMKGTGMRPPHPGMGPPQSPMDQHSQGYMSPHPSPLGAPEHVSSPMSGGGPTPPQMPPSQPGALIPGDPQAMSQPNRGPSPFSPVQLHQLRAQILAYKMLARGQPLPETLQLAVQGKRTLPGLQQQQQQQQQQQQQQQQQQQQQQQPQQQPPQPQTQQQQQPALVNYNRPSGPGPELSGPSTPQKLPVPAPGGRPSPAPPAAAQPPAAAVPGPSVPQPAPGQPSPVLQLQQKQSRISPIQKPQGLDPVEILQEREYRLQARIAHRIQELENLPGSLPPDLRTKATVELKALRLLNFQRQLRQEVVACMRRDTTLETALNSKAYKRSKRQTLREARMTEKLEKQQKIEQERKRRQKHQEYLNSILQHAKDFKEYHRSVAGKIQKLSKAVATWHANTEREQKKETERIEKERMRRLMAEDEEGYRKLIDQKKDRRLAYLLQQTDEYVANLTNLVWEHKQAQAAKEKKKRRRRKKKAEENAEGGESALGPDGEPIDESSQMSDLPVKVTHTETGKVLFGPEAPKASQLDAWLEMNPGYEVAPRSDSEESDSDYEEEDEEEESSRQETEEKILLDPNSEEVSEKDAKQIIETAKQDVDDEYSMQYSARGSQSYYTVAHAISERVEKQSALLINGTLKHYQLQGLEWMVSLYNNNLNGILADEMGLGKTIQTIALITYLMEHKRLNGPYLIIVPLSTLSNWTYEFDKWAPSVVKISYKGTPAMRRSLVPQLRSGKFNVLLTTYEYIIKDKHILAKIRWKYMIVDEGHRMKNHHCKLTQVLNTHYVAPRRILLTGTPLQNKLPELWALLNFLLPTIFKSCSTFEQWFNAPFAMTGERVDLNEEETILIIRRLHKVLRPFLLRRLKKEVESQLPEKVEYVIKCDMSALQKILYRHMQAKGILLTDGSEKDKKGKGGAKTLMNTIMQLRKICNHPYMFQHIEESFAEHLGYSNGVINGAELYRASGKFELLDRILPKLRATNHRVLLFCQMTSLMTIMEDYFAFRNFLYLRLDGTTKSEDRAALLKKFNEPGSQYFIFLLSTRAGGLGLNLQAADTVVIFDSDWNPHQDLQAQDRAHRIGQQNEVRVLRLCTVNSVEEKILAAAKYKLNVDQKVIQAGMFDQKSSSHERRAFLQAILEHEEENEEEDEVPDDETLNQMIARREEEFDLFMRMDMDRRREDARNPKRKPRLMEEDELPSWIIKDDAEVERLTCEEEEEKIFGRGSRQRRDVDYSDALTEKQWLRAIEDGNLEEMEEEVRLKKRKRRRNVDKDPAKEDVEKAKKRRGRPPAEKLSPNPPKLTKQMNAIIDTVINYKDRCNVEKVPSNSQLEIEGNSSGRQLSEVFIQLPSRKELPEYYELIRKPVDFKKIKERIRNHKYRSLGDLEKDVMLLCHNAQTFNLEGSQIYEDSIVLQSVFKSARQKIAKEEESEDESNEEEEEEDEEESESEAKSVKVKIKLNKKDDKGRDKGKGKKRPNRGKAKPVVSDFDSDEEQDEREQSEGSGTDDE

SMILES	BRM Max % Inhibition (BRM) [%]	IC50 (BRM) [µM]	IC50 (BRG-1) [µM]	Emax (BRG-1) [%]
C[C@@H]1CN(c2cccc(-c3csc(NC(=O)CNC(=O)c4ccc5c(c4)[C@](C#N)(CO)CC5)n3)n2)C[C@H](C)O1 [Compound 159, (R)-3-cyano-N-(2-((4-(6-((cis)-2,6-dimethylmorpholino)pyridin-2-yl)thiazol-2-yl)amino)-2-oxoethyl)-3-(hydroxymethyl)-2,3-dihydro-1H-indene-5-carboxamide]	>95	< 0.1	< 0.1	> 95
C[C@@H]1CN(c2cccc(-c3csc(NC(=O)CNC(=O)c4cccc([C@@H]5COC[C@H]5O)c4)n3)n2)C[C@H](C)O1 [Compound 160, N-(2-((4-(6-((cis)-2,6-dimethylmorpholino)pyridin-2-yl)thiazol-2-yl)amino)-2-oxoethyl)-3-((3R,4S)-4-hydroxytetrahydrofuran-3-yl)benzamide]	>80	0.1 to 1	> 5	< 30
C[C@@H]1CN(c2cccc(-c3csc(NC(=O)CNC(=O)c4ccc5c(c4)[C@@H](CO)CC5)n3)n2)C[C@H](C)O1 [Compound 161, (3S)-N-[2-[[4-[6-[(cis)-2,6-dimethylmorpholin-4-yl]-2-pyridyl]thiazol-2-yl]amino]-2-oxo-ethyl]-3-(hydroxymethyl)indane-5-carboxamide]	>95	< 0.1	0.1 to 1	> 80
C[C@@H]1CN(c2cccc(-c3csc(NC(=O)CNC(=O)c4ccc5c(c4)[C@H](CO)CC5)n3)n2)C[C@H](C)O1 [Compound 162, (3R)-N-[2-[[4-[6-[(cis)-2,6-dimethylmorpholin-4-yl]-2-pyridyl]thiazol-2-yl]amino]-2-oxo-ethyl]-3-(hydroxymethyl)indane-5-carboxamide]	>70	0.1 to 1	> 5	> 40
Cc1cncc(-c2cccc(-c3csc(NC(=O)CNC(=O)c4ccc5c(c4)[C@](C)(CO)CC5)n3)n2)n1 [Compound 163, (R)-3-(hydroxymethyl)-3-methyl-N-(2-((4-(6-(6-methylpyrazin-2-yl)pyridin-2-yl)thiazol-2-yl)amino)-2-oxoethyl)-2,3-dihydro-1H-indene-5-carboxamide]	>90	< 0.1	1 to 5	> 40
Cc1cncc(-c2cccc(-c3csc(NC(=O)CNC(=O)c4ccc5c(c4)[C@@](C)(CO)CC5)n3)n2)n1 [Compound 164, (S)-3-(hydroxymethyl)-3-methyl-N-(2-((4-(6-(6-methylpyrazin-2-yl)pyridin-2-yl)thiazol-2-yl)amino)-2-oxoethyl)-2,3-dihydro-1H-indene-5-carboxamide]	>60	0.1 to 1	> 5	< 30
C[C@@H]1CN(c2cccc(-c3csc(NC(=O)CNC(=O)c4ccc5c(c4)[C@](C)(CO)CCO5)n3)c2)C[C@H](C)O1 [Compound 165, (R)-N-(2-((4-(3-((cis)-2,6-dimethylmorpholino)phenyl)thiazol-2-yl)amino)-2-oxoethyl)-4-(hydroxymethyl)-4-methylchroman-6-carboxamide]	>90	0.1 to 1	> 5	< 40
C[C@@H]1CN(c2cccc(-c3csc(NC(=O)CNC(=O)c4ccc5c(c4)[C@@](C)(CO)CCO5)n3)c2)C[C@H](C)O1 [Compound 166, (S)-N-(2-((4-(3-((cis)-2,6-dimethylmorpholino)phenyl)thiazol-2-yl)amino)-2-oxoethyl)-4-(hydroxymethyl)-4-methylchroman-6-carboxamide]	>95	0.1 to 1	> 5	> 50
C[C@@]1(CO)CCc2ccc(C(=O)NCC(=O)Nc3nc(-c4cccc(-c5cnccn5)n4)cs3)cc21 [Compound 167, (R)-3-(hydroxymethyl)-3-methyl-N-(2-oxo-2-((4-(6-(pyrazin-2-yl)pyridin-2-yl)thiazol-2-yl)amino)ethyl)-2,3-dihydro-1H-indene-5-carboxamide]	>95	0.1 to 1	> 5	> 50
C[C@@H]1CN(c2cccc(-c3csc(NC(=O)CNC(=O)c4cccc(C5(CO)COC5)c4)n3)c2)C[C@H](C)O1 [Compound 168, N-(2-((4-(3-((cis)-2,6-dimethylmorpholino)phenyl)thiazol-2-yl)amino)-2-oxoethyl)-3-(3-(hydroxymethyl)oxetan-3-yl)benzamide]	>90	0.1 to 1	> 5	> 50
C[C@]1(CO)CCc2ccc(C(=O)NCC(=O)Nc3nc(-c4cccc(-c5cnccn5)n4)cs3)cc21 [Compound 169, (S)-3-(hydroxymethyl)-3-methyl-N-(2-oxo-2-((4-(6-(pyrazin-2-yl)pyridin-2-yl)thiazol-2-yl)amino)ethyl)-2,3-dihydro-1H-indene-5-carboxamide]	>80	0.1 to 1	> 5	> 50
C[C@@H]1CN(c2cccc(-c3csc(NC(=O)CNC(=O)c4cnc5c(c4)[C@](C)(C#N)CC5)n3)c2)C[C@H](C)O1 [Compound 170, (R)-5-cyano-N-(2-((4-(3-((cis)-2,6-dimethylmorpholino)phenyl)thiazol-2-yl)amino)-2-oxoethyl)-5-methyl-6,7-dihydro-5H-cyclopenta[b]pyridine-3-carboxamide]	>95	< 0.1	< 0.1	> 95
C[C@@H]1CN(c2cccc(-c3csc(NC(=O)CNC(=O)c4ccc5c(c4)[C@@](C)(C#N)COC5)n3)c2)C[C@H](C)O1 [Compound 171, (S)-4-cyano-N-(2-((4-(3-((cis)-2,6-dimethylmorpholino)phenyl)thiazol-2-yl)amino)-2-oxoethyl)-4-methylisochroman-6-carboxamide]	>80	0.1 to 1	1 to 5	> 70
C[C@@H]1CN(c2cccc(-c3csc(NC(=O)CNC(=O)c4ccc5c(c4)[C@](C)(C#N)CCO5)n3)c2)C[C@H](C)O1 [Compound 172, (4R)-4-cyano-N-[2-[[4-[3-[(cis)-2,6-dimethylmorpholin-4-yl]phenyl]thiazol-2-yl]amino]-2-oxo-ethyl]-4-methyl-chromane-6-carboxamide]	>95	< 0.1	< 0.1	> 95
CN1CCOc2ccc(-c3csc(NC(=O)CNC(=O)c4ccc5c(c4)[C@](C)(CO)CC5)n3)cc21 [Compound 173, (R)-3-(hydroxymethyl)-3-methyl-N-(2-((4-(4-methyl-3,4-dihydro-2H-benzo[b][1,4]oxazin-6-yl)thiazol-2-yl)amino)-2-oxoethyl)-2,3-dihydro-1H-indene-5-carboxamide]	>95	0.1 to 1	0.1 to 1	> 80
CN1CCOc2ccc(-c3csc(NC(=O)CNC(=O)c4ccc5c(c4)[C@@](C)(CO)CC5)n3)cc21 [Compound 174, (S)-3-(hydroxymethyl)-3-methyl-N-(2-((4-(4-methyl-3,4-dihydro-2H-benzo[b][1,4]oxazin-6-yl)thiazol-2-yl)amino)-2-oxoethyl)-2,3-dihydro-1H-indene-5-carboxamide]	>80	0.1 to 1	1 to 5	> 50
Cn1cnc2ccc(-c3csc(NC(=O)CNC(=O)c4ccc5c(c4)[C@](C)(CO)CC5)n3)cc21 [Compound 175, (R)-3-(hydroxymethyl)-3-methyl-N-(2-((4-(1-methyl-1H-benzo[d]imidazol-6-yl)thiazol-2-yl)amino)-2-oxoethyl)-2,3-dihydro-1H-indene-5-carboxamide]	>90	0.1 to 1	1 to 5	> 60
Cn1ccc2ccc(-c3csc(NC(=O)CNC(=O)c4ccc5c(c4)[C@](C)(CO)CC5)n3)cc2c1=O [Compound 177, (R)-3-(hydroxymethyl)-3-methyl-N-(2-((4-(2-methyl-1-oxo-1,2-dihydroisoquinolin-7-yl)thiazol-2-yl)amino)-2-oxoethyl)-2,3-dihydro-1H-indene-5-carboxamide]	>95	< 0.1	0.1 to 1	> 90
Cn1ncc2ccc(-c3csc(NC(=O)CNC(=O)c4ccc5c(c4)[C@](C)(CO)CC5)n3)cc21 [Compound 179, (R)-3-(hydroxymethyl)-3-methyl-N-(2-((4-(1-methyl-1H-indazol-6-yl)thiazol-2-yl)amino)-2-oxoethyl)-2,3-dihydro-1H-indene-5-carboxamide]	>80	0.1 to 1	> 5	> 50
CN1C(=O)CCc2ccc(-c3csc(NC(=O)CNC(=O)c4ccc5c(c4)[C@](C)(CO)CC5)n3)cc21 [Compound 180, (R)-3-(hydroxymethyl)-3-methyl-N-(2-((4-(1-methyl-2-oxo-1,2,3,4-tetrahydroquinolin-7-yl)thiazol-2-yl)amino)-2-oxoethyl)-2,3-dihydro-1H-indene-5-carboxamide]	>90	0.1 to 1	1 to 5	> 60
Cn1ccc2ccc(-c3csc(NC(=O)CNC(=O)c4ccc5c(c4)[C@@](C)(CO)CC5)n3)cc2c1=O [Compound 181, (S)-3-(hydroxymethyl)-3-methyl-N-(2-((4-(2-methyl-1-oxo-1,2-dihydroisoquinolin-7-yl)thiazol-2-yl)amino)-2-oxoethyl)-2,3-dihydro-1H-indene-5-carboxamide]	>90	0.1 to 1	1 to 5	> 70
